Biological target: Glutamate receptor ionotropic NMDA, PCP site (Rattus norvegicus)
Assay: Inhibition of [3H]1-[1-(2-thienyl) piperidine ([3H]TCP) binding to phencyclidine receptor

First: CN1CCc2ccccc2C1
Second: CC(C)C1NCCc2ccccc21 (stereo not drawn)
The IC50 of the first is higher: greater than 30 µM for the first, 11 µM for the second.

`Clc1ccc(C2NCCc3ccccc32)cc1` (stereo not drawn) and `Fc1ccc(C2NCCc3ccccc32)cc1` (stereo not drawn) are within 1.5-fold of each other in IC50: 5.3 µM for the first, 4.9 µM for the second.

`c1ccc(C2NCc3ccccc32)cc1` (stereo not drawn) and `c1ccc2c(c1)CCNC2c1ccc2ccccc2c1` (stereo not drawn) cannot be ordered by IC50: greater than 30 µM for the first, greater than 30 µM for the second.

First: C=CCN1C(C)Cc2ccccc2C1C (stereo not drawn)
Second: CC1Cc2ccccc2C(C)N1 (stereo not drawn)
The IC50 of the first is lower: 5.4 µM for the first, greater than 30 µM for the second. The first is the more potent here.

Reference: BindingDB's records for doi:10.1021/jm00126a016 (G. D. Searle, 1989)
